The record followed here is US9187497B2, “Substituted pyrido[3,2-e]pyrrolo[1,2-a]pyrazines as inhibitors of poly(ADP-ribose)polymerase (PARP)” (Takeda Phamaceutical Company Limited, priority 2009, dated 2015).

Bounds are passed on as bounds.

One assay concerns the target T1, PARP (Homo sapiens, UniProt P09874).
T1 construct: purchased Trevigen 4684-096-01 (enzyme); kit 4684-096-K HT
Put plainly: PARP ELISA colorimetric assay of inhibition of PARP catalytic activity (IC50). The assay is classed as biochemical. To be noted: pIC50=-log(IC50), IC50 in molar concentration; ELISA-based PARP kit, 10 minutes of catalysis. On the procedure: Inhibition Constant (IC50) from PARP ELISA
Inhibition of PARP catalytic activity was determined by use of an ELISA-based colorimetric PARP/Apoptosis Assay kit (part number 4684-096-K HT, Trevigen). To each histone coated well in the 96-well plate supplied by the manufacturer (part number 4677-096-P) is added 39 μl of PARP buffer (part number 4671-096-02) and 1 μl of test compound dissolved in DMSO (diluted serially 3-fold 11 times). After mixing, 5 μl of 0.1 nM PARP (part number 4684-096-01) is added and the solution allowed to stand at ambient temperature for 10 minutes. PARP catalysis is initiated with the addition of 5 μl of 100 μM β-nicotinamide adenine dinucleotide (NAD+) (part number 4684-096-02) with activated DNA (part number 4671-096-06). After 10 minutes of catalysis the reaction is quenched by solvent aspiration followed by irrigation of the assay wells 4 times with phosphate buffered saline (PBS) containing 0.1% t-Octylphenoxypolyethoxyethanol (Triton® X-100). Mouse Anti-poly ADP ribose (PAR) monoclonal antibody, goat antimouse immunoglobulin G (IgG)-horse radish peroxidase (HRP) conjugate and HRP substrate are added according to the manufacture's specifications to generate a colorimetric signal proportional to PARP catalytic activity. An IC50 for the test compound is calculated from the equation Absorbance=(Amax−background)/(1+([cmpd]/IC50)^n)+background fit to the 12 point test compound concentration gradient via nonlinear least squares.

The subject of a further assay is Jurkat cell line. Put plainly: PARP cellular chemopotentiation assay (MTS cell viability with and without TMZ). The class given is cell-based. The note with it: ratio of EC50 for inhibition of cell viability without and with 100 μM TMZ; Jurkat cells, 96 hours of treatment. The essentials:
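Jurkat cells, 10,000/well, pre-cultured 24 h, then treated 96 h with serial compound dilutions (0.5% DMSO) with or without 100 μM TMZ. Viability by MTS conversion (OD490), normalized to DMSO controls; EC50 from curve fits, PF50 = EC50 without TMZ / EC50 with TMZ.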

T1 sequence (P09874 whole entry): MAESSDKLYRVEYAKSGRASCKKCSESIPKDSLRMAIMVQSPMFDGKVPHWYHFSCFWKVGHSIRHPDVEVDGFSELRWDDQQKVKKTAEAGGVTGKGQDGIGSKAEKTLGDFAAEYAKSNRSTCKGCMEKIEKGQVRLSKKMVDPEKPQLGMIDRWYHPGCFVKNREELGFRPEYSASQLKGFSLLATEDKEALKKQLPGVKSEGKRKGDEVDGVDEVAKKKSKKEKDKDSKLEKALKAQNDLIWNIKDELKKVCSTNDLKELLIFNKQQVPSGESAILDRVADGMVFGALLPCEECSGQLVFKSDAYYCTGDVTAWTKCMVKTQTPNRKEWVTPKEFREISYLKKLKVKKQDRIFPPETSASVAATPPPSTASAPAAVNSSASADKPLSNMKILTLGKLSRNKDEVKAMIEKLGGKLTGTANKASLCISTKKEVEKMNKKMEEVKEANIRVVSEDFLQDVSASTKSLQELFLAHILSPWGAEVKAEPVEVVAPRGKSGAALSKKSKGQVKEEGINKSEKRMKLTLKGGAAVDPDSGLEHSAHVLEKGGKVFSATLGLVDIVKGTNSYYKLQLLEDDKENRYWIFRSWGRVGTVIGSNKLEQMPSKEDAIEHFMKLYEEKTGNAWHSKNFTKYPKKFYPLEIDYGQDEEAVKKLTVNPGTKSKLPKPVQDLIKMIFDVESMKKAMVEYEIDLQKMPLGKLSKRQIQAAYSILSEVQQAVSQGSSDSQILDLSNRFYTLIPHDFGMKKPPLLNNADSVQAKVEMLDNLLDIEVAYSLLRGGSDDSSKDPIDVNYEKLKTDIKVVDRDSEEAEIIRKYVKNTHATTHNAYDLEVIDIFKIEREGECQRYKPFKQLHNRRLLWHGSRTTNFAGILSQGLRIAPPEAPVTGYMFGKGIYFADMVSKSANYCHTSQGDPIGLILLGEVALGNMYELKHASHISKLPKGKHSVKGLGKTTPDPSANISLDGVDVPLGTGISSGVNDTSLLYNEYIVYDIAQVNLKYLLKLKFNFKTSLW

For the compound `O=C1CC2CCCN2c2ncc(CN3CCN(c4ccc(Cl)cc4)CC3)cc2N1` (stereo not shown) [Compound 104, 3-((4-(4-chlorophenyl)piperazin-1-yl)methyl)-7a,8,9,10-tetrahydro-5H-pyrido[3,2-b]pyrrolo[1,2-d][1,4]diazepin-6(7H)-one], the IC50 against PARP was at least 0.0501 µM. Besides, the PF50 entry with Jurkat cell line is on record as “≧0”.

Compound `CNC(=O)c1ccc(N2CCN(Cc3cnc4c(c3)NC(=O)[C@@H]3CCCCN43)CC2)c(F)c1` [Compound 112, (S)-3-fluoro-N-methyl-4-(4-((6-oxo-6,6a,7,8,9,10-hexahydro-5H-dipyrido[1,2-a:3′,2′-e]pyrazin-3-yl)methyl)piperazin-1-yl)benzamide] showed a half-inhibitory concentration (IC50) against PARP of at most 0.0126 µM. Besides, the PF50 in the assay with Jurkat cell line was above 10.

Turning to `O=C1Nc2cc(CN3CCN(c4ccc(Cl)cn4)CC3)cnc2N2CCC[C@@H]12` [Compound 42, (S)-3-((4-(5-chloropyridin-2-yl)piperazin-1-yl)methyl)-6a,7,8,9-tetrahydropyrido[3,2-e]pyrrolo[1,2-a]pyrazin-6(5H)-one], the half-inhibitory concentration (IC50) on PARP is at least 0.0501 µM. Moreover, the PF50 in the assay on Jurkat cell line was above 500.

`CNC(=O)c1ccc(N2CCN(Cc3cnc4c(c3)NC(=O)[C@@H]3CCCN43)CC2)c(F)c1` [Compound 131, (S)-3-fluoro-N-methyl-4-(4-((6-oxo-5,6,6a,7,8,9-hexahydropyrido[3,2-e]pyrrolo[1,2-a]pyrazin-3-yl)methyl)piperazin-1-yl)benzamide] had an IC50 against PARP of at most 0.0126 µM. Also, the PF50 in the assay with Jurkat cell line is given as above 500.

Compound `CCNC(=O)c1ccc(N2CCN(Cc3cnc4c(c3)NC(=O)[C@@H]3CCCCN43)CC2)c(F)c1` [Compound 109, (S)—N-ethyl-3-fluoro-4-(4-((6-oxo-6,6a,7,8,9,10-hexahydro-5H-dipyrido[1,2-a:3′,2′-e]pyrazin-3-yl)methyl)piperazin-1-yl)benzamide] gave an IC50 at PARP of 0.0158 to 0.0398 µM. For the same compound, the PF50 with Jurkat cell line is above 2000.

Consider `CCNC(=O)c1cc(F)c(N2CCN(Cc3cnc4c(c3)NC(=O)[C@@H]3CCCN43)CC2)cc1F` [Compound 124, (S)—N-ethyl-2,5-difluoro-4-(4-((6-oxo-5,6,6a,7,8,9-hexahydropyrido[3,2-e]pyrrolo[1,2-a]pyrazin-3-yl)methyl)piperazin-1-yl)benzamide], for which the IC50 against PARP was at least 0.0501 µM. Moreover, in the assay with Jurkat cell line, the PF50 entry is given as “≧0”.

Regarding `CC(C)NC(=O)c1ccc(N2CCN(Cc3cnc4c(c3)NC(=O)[C@@H]3CCCN43)CC2)c(F)c1` [Compound 133, (S)-3-fluoro-N-isopropyl-4-(4-((6-oxo-5,6,6a,7,8,9-hexahydropyrido[3,2-e]pyrrolo[1,2-a]pyrazin-3-yl)methyl)piperazin-1-yl)benzamide], the concentration for half-maximal inhibition (IC50) on PARP was 0.0158 to 0.0398 µM. Further, in the assay on Jurkat cell line, the PF50 is on record as above 2000.

Consider `CNC(=O)c1ccc(N2CCN(Cc3cnc4c(c3)NC(=O)[C@@H]3CSCCN43)CC2)c(Cl)c1` [Compound 108, (R)-3-chloro-N-methyl-4-(4-((6-oxo-5,6,6a,7,9,10-hexahydropyrido[3,2-e][1,4]thiazino[4,3-a]pyrazin-3-yl)methyl)piperazin-1-yl)benzamide], for which the 50% inhibitory concentration (IC50) on PARP is at most 0.0126 µM. In the assay with Jurkat cell line, the PF50 is on record as above 500.

Regarding `O=C1Nc2cc(CN3CCN(c4ccc(Cl)cc4)CC3)cnc2N2CCSCC12` (stereo not shown) [Compound 87, 3-((4-(4-chlorophenyl)piperazin-1-yl)methyl)-6a,7,9,10-tetrahydropyrido[3,2-e][1,4]thiazino[4,3-a]pyrazin-6(5H)-one], the IC50 against PARP is 0.0158 to 0.0398 µM. In the assay with Jurkat cell line, the PF50 was above 10.

As for `CNS(=O)(=O)c1ccc(N2CCN(Cc3cnc4c(c3)NC(=O)[C@@H]3CCCN43)CC2)cc1` [Compound 128, (S)—N-methyl-4-(4-((6-oxo-5,6,6a,7,8,9-hexahydropyrido[3,2-e]pyrrolo[1,2-a]pyrazin-3-yl)methyl)piperazin-1-yl)benzenesulfonamide], the IC50 against PARP is at least 0.0501 µM. Besides, in the assay with Jurkat cell line, the PF50 result was “≧0”.

Take `CNC(=O)c1ccc(N2CCN(Cc3cnc4c(c3)NC(=O)[C@@H]3CCCN43)CC2)nc1` [Compound 6, (S)—N-methyl-6-(4-((6-oxo-5,6,6a,7,8,9-hexahydropyrido[3,2-e]pyrrolo[1,2-a]pyrazin-3-yl)methyl)piperazin-1-yl)nicotinamide]: the half-inhibitory concentration (IC50) against PARP is at most 0.0126 µM. The PF50 in the assay with Jurkat cell line is given as above 10.

With `COC(=O)c1ccc(N2CCN(Cc3cnc4c(c3)NC(=O)[C@@H]3CCCN43)CC2)cc1` [Compound 45, (S)-methyl 4-(4-((6-oxo-5,6,6a,7,8,9-hexahydropyrido[3,2-e]pyrrolo[1,2-a]pyrazin-3-yl)methyl)piperazin-1-yl)benzoate], the IC50 at PARP was 0.0158 to 0.0398 µM. Besides, the PF50 with Jurkat cell line is on record as above 10.

Take `C[C@H]1CN(c2ccc(C#N)cc2)CCN1Cc1cnc2c(c1)NC(=O)[C@@H]1CSCCN21` [Compound 105, 4-((S)-3-methyl-4-(((R)-6-oxo-5,6,6a,7,9,10-hexahydropyrido[3,2-e][1,4]thiazino[4,3-a]pyrazin-3-yl)methyl)piperazin-1-yl)benzonitrile]: the IC50 on PARP was 0.0158 to 0.0398 µM. The PF50 in the assay on Jurkat cell line was above 10.

In turn, `CCNC(=O)c1ccc(N2CCN(Cc3cnc4c(c3)NC(=O)[C@@H]3CCCN43)CC2)cc1F` [Compound 125, (S)—N-ethyl-2-fluoro-4-(4-((6-oxo-5,6,6a,7,8,9-hexahydropyrido[3,2-e]pyrrolo[1,2-a]pyrazin-3-yl)methyl)piperazin-1-yl)benzamide] had a half-inhibitory concentration (IC50) against PARP of at least 0.0501 µM. For the same compound, the PF50 result with Jurkat cell line is “≧0”.

On PARP, `CCNC(=O)c1ccc(N2CCN(Cc3cnc4c(c3)NC(=O)[C@@H]3CCCN43)CC2)c(F)c1` [Compound 126, (S)—N-ethyl-3-fluoro-4-(4-((6-oxo-5,6,6a,7,8,9-hexahydropyrido[3,2-e]pyrrolo[1,2-a]pyrazin-3-yl)methyl)piperazin-1-yl)benzamide] gave an IC50 of 0.0158 to 0.0398 µM. For the same compound, the PF50 in the assay on Jurkat cell line is given as above 5000.

`CNC(=O)c1ccc(N2CCN(Cc3cnc4c(c3)NC(=O)[C@@H]3CCCN43)CC2)cc1` [Compound 11, (S)—N-methyl-4-(4-((6-oxo-5,6,6a,7,8,9-hexahydropyrido[3,2-e]pyrrolo[1,2-a]pyrazin-3-yl)methyl)piperazin-1-yl)benzamide] showed an IC50 on PARP of 0.0158 to 0.0398 µM. For the same compound, the PF50 in the assay on Jurkat cell line is on record as above 10.

`Cc1cccc(N2CCN(Cc3cnc4c(c3)NC(=O)[C@@H]3CCCN43)CC2)c1` [Compound 29, (S)-3-((4-m-tolylpiperazin-1-yl)methyl)-6a,7,8,9-tetrahydropyrido[3,2-e]pyrrolo[1,2-a]pyrazin-6(5H)-one] showed a concentration for half-maximal inhibition (IC50) on PARP of at least 0.0501 µM. For the same compound, the PF50 with Jurkat cell line is on record as above 500.

In turn, `O=C(NC1CC1)c1ccc(N2CCN(Cc3cnc4c(c3)NC(=O)[C@@H]3CCCCN43)CC2)cc1` [Compound 75, (S)—N-cyclopropyl-4-(4-((6-oxo-6,6a,7,8,9,10-hexahydro-5H-dipyrido[1,2-a:3′,2′-e]pyrazin-3-yl)methyl)piperazin-1-yl)benzamide] showed a half-maximal inhibitory concentration (IC50) at PARP of 0.0158 to 0.0398 µM. For the same compound, the PF50 with Jurkat cell line is reported as above 500.

`CNC(=O)c1ccc(N2CCN(Cc3cnc4c(c3)NC(=O)[C@@H]3CCCN43)CC2)c(C)c1` [Compound 141, (S)—N,3-dimethyl-4-(4-((6-oxo-5,6,6a,7,8,9-hexahydropyrido[3,2-e]pyrrolo[1,2-a]pyrazin-3-yl)methyl)piperazin-1-yl)benzamide] had an IC50 against PARP of at most 0.0126 µM. The PF50 with Jurkat cell line is above 500.

At PARP, `O=C1Nc2cc(CN3CCN(c4ccc(Cl)cc4)CC3)cnc2N2CCCC[C@@H]12` [Compound 69, (S)-3-((4-(4-chlorophenyl)piperazin-1-yl)methyl)-7,8,9,10-tetrahydro-5H-dipyrido[1,2-a:3′,2′-e]pyrazin-6(6aH)-one] gave an IC50 of at most 0.0126 µM. For the same compound, in the assay with Jurkat cell line, the PF50 is on record as above 10.

The compound `CC(C)N1CC(=O)Nc2cc(CN3CC=C(c4ccc(Cl)cc4)CC3)cnc21` [Compound 94, 7-((4-(4-chlorophenyl)-5,6-dihydropyridin-1(2H)-yl)methyl)-4-isopropyl-3,4-dihydropyrido[2,3-b]pyrazin-2(1H)-one] showed a half-maximal inhibitory concentration (IC50) on PARP of at least 0.0501 µM. Further, the PF50 entry in the assay with Jurkat cell line is “≧0”.

On PARP, `O=C1Nc2cc(CN3CCC(c4ccc(Cl)cc4)CC3)cnc2N2CCCC[C@@H]12` [Compound 70, (S)-3-((4-(4-chlorophenyl)piperidin-1-yl)methyl)-7,8,9,10-tetrahydro-5H-dipyrido[1,2-a:3′,2′-e]pyrazin-6(6aH)-one] gave an IC50 of at least 0.0501 µM. The PF50 entry in the assay on Jurkat cell line is given as “≧0”.

In turn, `O=C1Nc2cc(CN3CCN(c4ccc(F)cc4)CC3)cnc2N2CCC[C@@H]12` [Compound 24, (S)-3-((4-(4-fluorophenyl)piperazin-1-yl)methyl)-6a,7,8,9-tetrahydropyrido[3,2-e]pyrrolo[1,2-a]pyrazin-6(5H)-one] gave a half-maximal inhibitory concentration (IC50) against PARP of 0.0158 to 0.0398 µM. Further, the PF50 with Jurkat cell line is recorded as above 5000.
